In one test the target is Fasciola hepatica TIM (FhTIM) (Fasciola hepatica, UniProt S4UI50). Kind of test: Inhibition of recombinant FhTIM, coupled enzyme assay. As to conditions: Figure 1, ranges of inhibitory activity; read-out: IC50 range. The class given is biochemical. Here is the method: Expression and purification of proteins: FhTIM, RabbitTIM and HsTIM were expressed in Escherichia coli and purified as described in the literature[31],[37]. […] Before use, extensive dialysis against 100 mM triethanolamine/10 mM EDTA (pH 7.4) was performed. […] Enzymatic activity was determined following the conversion of glyceraldehydes-3-phosphate into dihydroxyacetone phosphate in a coupled enzyme assay. The decrease in absorbance at 340 nm was followed in a multiplate reader VarioskanTM Flash Multimode Reader (Thermo ScientificTM, Waltham, MA, USA) at 38 °C. The reaction mixture (1 mL, pH 7.4) contained 100 mM triethanolamine, 10 mM EDTA, 0.2 mM NADH, 1 mM glyceraldehydes-3-phosphate and 0.9 units of α-glycerol phosphate dehydrogenase. The reaction was initiated by the addition of 5 ng/mL of the TIM of interest. For the inhibition studies, TIM was incubated at a concentration of 5 mg/mL in a buffer containing 100 mM triethanolamine, 10 mM EDTA, pH 7.4 and 10% of DMSO at 37 °C for 1 h. The mixture also contained the compounds, dissolved in DMSO, at the indicated concentrations. After 1 h, 10 µL were withdrawn and added to a final volume of 100 µL of the reaction mixture for the activity assay. The inhibition assay was performed in a 96-well microplate. […] The experiments were performed in triplicate in two independent experiments.
Fasciola hepatica TIM (FhTIM), sequence (S4UI50 entry or part of it): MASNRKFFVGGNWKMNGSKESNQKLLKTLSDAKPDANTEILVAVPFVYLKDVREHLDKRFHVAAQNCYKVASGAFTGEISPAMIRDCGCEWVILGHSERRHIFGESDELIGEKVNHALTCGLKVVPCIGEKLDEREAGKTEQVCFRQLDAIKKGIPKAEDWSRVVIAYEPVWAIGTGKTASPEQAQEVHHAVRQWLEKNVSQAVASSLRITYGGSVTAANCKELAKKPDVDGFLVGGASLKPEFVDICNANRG
As usually defined, the IC50 is the point on the concentration scale where inhibition reaches its midpoint. With `CN(C)Cc1ccccc1Cn1nc(O)c2cc([N+](=O)[O-])ccc21` [Compound 482], the IC50 was less than 50 µM.

Staying with this test, now noted: Table 1S, screening of 340 compounds in FhTIM; table head prints no unit, µM per b8/b9; read-out: IC50.
On to `O=C1CSC(=NN=CC=Cc2ccco2)N1c1ccccc1` [Compound 282], for which the IC50 was greater than 100 µM.

Take `NC(=S)NN=Cc1ccc([N+](=O)[O-])s1` [Compound 283]: the IC50 was greater than 100 µM.

As for `CC(=O)N(C1=NN(C(C)=O)C(c2cccs2)S1)c1ccccc1` (stereo not drawn) [Compound 284], the IC50 is greater than 100 µM.

On to `C=CCN(C(C)=O)C1=NN(C(C)=O)C(C=Cc2ccco2)S1` (stereo not drawn) [Compound 285], for which the IC50 was greater than 100 µM.

For `C=CCN(C(C)=O)C1=NNC(c2cccs2)S1` (stereo not drawn) [Compound 286], the IC50 was greater than 100 µM.

Consider `C=CCN(C(C)=O)C1=NNC(c2ccc([N+](=O)[O-])s2)S1` (stereo not drawn) [Compound 287], for which the IC50 was greater than 100 µM.

As to `C=CCn1c(-c2csc(=NN=Cc3cccs3)n2CC=C)csc1=NN=Cc1cccs1` [Compound 288], the IC50 is greater than 100 µM.

For `C=CCNC(=S)NN=Cc1ccc(O)cc1` [Compound 291], the IC50 was greater than 100 µM.

As for `C=CCNc1nnc(-c2ccc([N+](=O)[O-])s2)s1` [Compound 292], the IC50 is greater than 100 µM.

`O=C1CSC(=NN=Cc2cccs2)N1c1ccccc1` [Compound 293]: the IC50 is greater than 100 µM.

For the molecule `C=CCNC(=S)NN=Cc1ccc2ccccc2c1` [Compound 296], the IC50 was greater than 100 µM.

For `C=CCNC(=S)NN=CC=Cc1ccccc1` [Compound 300], the IC50 is greater than 100 µM.

Take `C=CCn1c(-c2ccc(Cl)cc2)csc1=NN=Cc1ccc2no[n+]([O-])c2c1` [Compound 304]: the IC50 is greater than 100 µM.

With `C=CCn1c(-c2ccc(Br)cc2)csc1=NN=CC=Cc1ccco1` [Compound 306], the IC50 fell in the range of 50 to 100 µM.

`C=CCNC(=S)NN=Cc1cncc(Br)c1` [Compound 307]: the IC50 is greater than 100 µM.

For the molecule `C=CCNC(=S)NN=Cc1ccnc2ccccc12` [Compound 308], the IC50 was in the range of 50 to 100 µM.

As for `S=C(NN=CC=CC=Cc1cccs1)Nc1ccccc1` [Compound 310], the IC50 fell in the range of 50 to 100 µM.

In the case of `C=CCn1c(-c2ccc(Cl)cc2)csc1=NN=C/C=C/C=C/c1cccs1` [Compound 311], the IC50 was 50 to 100 µM.

For the molecule `C=CCN1C(=O)CSC1=NN=CC=CC=Cc1cccs1` [Compound 312], the IC50 is greater than 100 µM.

As to `O=C1CSC(=NN=C/C=C/C=C/c2cccs2)N1c1ccccc1` [Compound 313], the IC50 is greater than 100 µM.

As to `C=CCn1c(C(=O)N2CCN(CC=Cc3ccccc3)CC2)csc1=NN=CC=Cc1ccco1` [Compound 314], the 50% inhibitory concentration (IC50) was greater than 100 µM.

On to `[O-][n+]1onc(-c2ccccc2)c1CN1CCOCC1` [Compound 352], for which the IC50 is greater than 100 µM.

With `CN1CC(=Cc2ccccc2)C(=O)C(=Cc2ccccc2)C1` [Compound 357], the IC50 was greater than 100 µM.

On to `O=C1CC(=O)N(Cc2ccccc2)S(=O)(=O)N1Cc1ccccc1` [Compound 358], for which the IC50 is greater than 100 µM.

In the case of `Cc1nnc[n+]([O-])c1C=Cc1ccc([N+](=O)[O-])o1` [Compound 359], the IC50 was greater than 100 µM.

As to `Cc1nnc[n+]([O-])c1CC(c1ccc([N+](=O)[O-])cc1)N1CCOCC1` (stereo not drawn) [Compound 360], the IC50 was greater than 100 µM.

With `Cc1nnc[n+]([O-])c1/C=C/c1ccc([N+](=O)[O-])s1` [Compound 361], the half-inhibitory concentration (IC50) came out at 100 µM.

In the case of `COc1ccc(C=Cc2cnnc[n+]2[O-])cc1` [Compound 365], the IC50 is greater than 100 µM.

As for `COc1ccc(NC(=O)CCl)cc1` [Compound 379], the IC50 was greater than 100 µM.

As to `NNC(=O)Nc1ccc(Cl)cc1` [Compound 397], the IC50 was greater than 100 µM.

As to `O=[N+]([O-])c1ccc2c(c1)c(O)nn2Cc1ccccc1CN1CCCCC1` [Compound 456], the IC50 was greater than 100 µM.

For the molecule `O=[N+]([O-])c1ccc2c(c1)c(O)nn2CCOCCN1CCCCC1` [Compound 459], the IC50 was greater than 100 µM.

In the case of `COc1nn(CCCCCN(C)C)c2ccc([N+](=O)[O-])cc12` [Compound 469], the IC50 was greater than 100 µM.

Regarding `O=C(O)c1ccc(Cl)[n+]([O-])c1` [Compound 472], the half-maximal inhibitory concentration (IC50) is greater than 100 µM.

Take `COc1nn(CCOCCN(C)C)c2ccc([N+](=O)[O-])cc12` [Compound 474]: the IC50 is greater than 100 µM.

`Cc1ccc(-n2c(C#N)c3ccccc3[n+]2[O-])cc1` [Compound 476]: the IC50 is greater than 100 µM.

With `CN(C)CCCCCn1nc(O)c2cc([N+](=O)[O-])ccc21` [Compound 477], the IC50 was greater than 100 µM.

Regarding `N#Cc1c2ccccc2[n+]([O-])n1-c1ccc(Cl)cc1` [Compound 480], the IC50 is greater than 100 µM.

`O=[N+]([O-])c1ccc2c(c1)c(O)nn2CCCCCN1CCCCC1` [Compound 481]: the IC50 was 50 to 100 µM.

`N#Cc1c2ccccc2[n+]([O-])n1CCCl` [Compound 483]: the IC50 is greater than 100 µM.

As to `CC(C)OC(CC[P+](c1ccccc1)(c1ccccc1)c1ccccc1)OC(C)C` [Compound 497], the IC50 is greater than 100 µM.

Consider `CN(CC=Cc1ccccc1)Cc1ccc2c(c1)=[N+]([O-])C(C)(C)[N+]=2[O-]` [Compound 499], for which the IC50 is greater than 100 µM.

Consider `N#Cc1c2ccccc2[n+]([O-])n1C/C=C/c1ccccc1` [Compound 500], for which the IC50 was greater than 100 µM.

`N#Cc1c2ccccc2[n+]([O-])n1CCC=Cc1ccc(Cl)cc1` [Compound 501]: the IC50 is greater than 100 µM.

As to `COc1nn(CCOCCN(C)CC=Cc2ccccc2)c2ccc([N+](=O)[O-])cc12` [Compound 504], the IC50 was greater than 100 µM.

`O=[N+]([O-])c1ccc2c(c1)c(OCc1ccccc1)nn2CCCCCN1CCN(CC=Cc2ccccc2)CC1` [Compound 505]: the IC50 was greater than 100 µM.

For `CN(CC=Cc1ccccc1)CCCCCn1nc(OCc2ccccc2)c2cc([N+](=O)[O-])ccc21` [Compound 507], the IC50 is greater than 100 µM.

Take `CN(C/C=C/c1ccccc1)CCOCCn1nc(OCc2ccccc2)c2cc([N+](=O)[O-])ccc21` [Compound 508]: the IC50 was greater than 100 µM.

Turning to `COc1nn(CCOCCI)c2ccc([N+](=O)[O-])cc12` [Compound 514], the IC50 is greater than 100 µM.

Take `O=[N+]([O-])c1ccc2c(c1)c(OCc1ccccc1)nn2CCOCCBr` [Compound 516]: the IC50 was greater than 100 µM.

Take `O=[N+]([O-])c1ccc2c(c1)c(O)nn2CCOCCBr` [Compound 517]: the IC50 is greater than 100 µM.

`O=[N+]([O-])c1ccc2c(c1)c(OCc1ccccc1)nn2CCCCCBr` [Compound 518]: the IC50 amounted to 100 µM.

On to `CC1(C)[N+]([O-])=c2ccc(Cl)cc2=[N+]1[O-]` [Compound 532], for which the IC50 was 50 to 100 µM.

With `CCOC(=O)c1nc2ccc([N+](=O)[O-])cc2n1OC(=O)OCC(C)C` [Compound 545], the IC50 was 100 µM.

Take `CCOC(=O)c1nc2ccc([N+](=O)[O-])cc2n1O` [Compound 546]: the IC50 is greater than 100 µM.

Turning to `CCCCOC(=O)c1nc2ccc([N+](=O)[O-])cc2n1O` [Compound 550], the IC50 is greater than 100 µM.

Regarding `CCOC(=O)c1n(Cc2ccc(N(C)C)cc2)c2ccc([N+](=O)[O-])cc2[n+]1[O-]` [Compound 553], the 50% inhibitory concentration (IC50) is greater than 100 µM.

As for `NC1=NC(=O)N=C(N)C1=Cc1ccco1` [Compound 575], the IC50 fell in the range of 50 to 100 µM.

For the molecule `N#CC(C#N)=CC=Cc1ccco1` [Compound 579], the IC50 was greater than 100 µM.

For `O=[N+]([O-])c1ccc(C=Cc2ccc3nonc3c2)cc1` [Compound 584], the IC50 is greater than 100 µM.

Regarding `[O-][n+]1onc2ccc(CN3CCN(CC=Cc4ccccc4)CC3)cc21` [Compound 609], the IC50 is greater than 100 µM.

With `NN1CCSCC1` [Compound 616], the IC50 was greater than 100 µM.

In the case of `[O-][n+]1onc2cc(F)c(F)cc21` [Compound 627], the half-maximal inhibitory concentration (IC50) was greater than 100 µM.

Consider `[O-][N+]1=c2ccccc2=[N+]([O-])C12CCCC2` [Compound 633], for which the IC50 is greater than 100 µM.

In the case of `O=c1c2cc([N+](=O)[O-])ccc2n2n1CCCCC2` [Compound 637], the IC50 was greater than 100 µM.

`Cc1nnc[n+]([O-])c1C=Cc1ccc(N(C)C)cc1` [Compound 641]: the IC50 was greater than 100 µM.

Regarding `O=[N+]([O-])c1ccc2c(c1)c(O)nn2CCOCCN1CCSCC1` [Compound 642], the IC50 was greater than 100 µM.

For `CCCCNCCCCCn1nc(OC)c2cc([N+](=O)[O-])ccc21` [Compound 643], the IC50 was greater than 100 µM.

Take `N#Cc1c(-c2ccccc2)no[n+]1[O-]` [Compound 650]: the IC50 was greater than 100 µM.

`CNc1ccc(C)cc1[N+](=O)[O-]` [Compound 651]: the IC50 is greater than 100 µM.

Turning to `COc1ccc(CNCC(=O)O)cc1` [Compound 659], the IC50 was greater than 100 µM.

On to `CCOC(=O)On1c(C(=O)OCC)nc2ccc([N+](=O)[O-])cc21` [Compound 660], for which the IC50 is greater than 100 µM.

Regarding `N#CSc1ccc(C=O)cc1[N+](=O)[O-]` [Compound 670], the IC50 turned out to be 100 µM.

Take `[O-][n+]1onc2ncc(Cl)cc21` [Compound 671]: the IC50 is greater than 100 µM.

With `NC(N)=N/N=C/c1ccc(O)cc1` [Compound 675], the IC50 lay within 50 to 100 µM.

Still in this test, the particulars now being: recombinant FhTIM, 1 h incubation with compound at 37 °C; read-out: IC50.
As for `S=C(NN=CC=CC=Cc1cccs1)Nc1ccccc1` [Compound 310], the IC50 is 79 ± 7 µM.

`CN(C)Cc1ccccc1Cn1nc(O)c2cc([N+](=O)[O-])ccc21` [Compound 482]: the IC50 is 30 ± 3 µM.

(Values after PMC7018972, “Novel and selective inactivators of Triosephosphate isomerase with anti-trematode activity” (Scientific Reports, 2020).)
